Format in all cases: functional, Homo sapiens
Conditions in all cases: Homo sapiens, read-out: Cell Viability; for viability at 1 µM: Concentration 1 uM; for viability at 10 µM: Concentration 10 uM

Experiment [1] relates to Colon cancer organoid. Nature of the experiment: Targeting of F14 CAF-induced therapy resistance in O23 CRC organoid-stroma co-culture. Cell viability is reported without Gefitinib.
Experiment [2] has as its system Colon cancer organoid. Kind of experiment: Targeting of F14 CAF-induced therapy resistance in O14 CRC organoid-stroma co-culture. Cell viability is reported with Gefitinib.
Experiment [3] deals with Colon cancer organoid. Kind of experiment: Targeting of F14 CAF-induced therapy resistance in O23 CRC organoid-stroma co-culture. Cell viability is reported with Gefitinib.
Experiment [4] concerns Colon cancer organoid. Kind of experiment: Targeting of F14 CAF-induced therapy resistance in O23 CRC organoid-stroma co-culture. Cell viability is reported with SN-38.
Experiment [5] relates to Colon cancer organoid. Nature of the experiment: Targeting of F14 CAF-induced therapy resistance in O14 CRC organoid-stroma co-culture. Cell viability is reported without Gefitinib.

SMILES strings stand for the structures.

On to `CCOC(=O)c1cc2cc(-c3cc(C(=O)NCc4ccc(C(=O)O)cc4)nn3C)ccc2[nH]1` [BI 4394], for which the viability at 1 µM in the experiment on Colon cancer organoid [1] was 148%; in the experiment on Colon cancer organoid [2], 59.3%; in the experiment on Colon cancer organoid [3], 77.1%; with Colon cancer organoid [4] it was 83.8%; in the experiment with Colon cancer organoid [5], 95.7%.
With `Cn1nc(C(=O)NCc2ccc(C(=O)O)cc2)cc1-c1ccc2[nH]ccc2c1` [BI 4395], the viability at 10 µM in the experiment on Colon cancer organoid [1] was found to be 124%; in the experiment with Colon cancer organoid [2], 62.1%; in the experiment with Colon cancer organoid [3], 52.8%; in the experiment on Colon cancer organoid [4], 77.4%; with Colon cancer organoid [5] it was 95.3%.
`Cn1c(C2(NC(=O)c3ccc(NCC4CCCCC4)nc3)CCC2)nc2ccc(/C=C/C(=O)O)cc21` [BI 7656]: the viability at 10 µM was 131% in the experiment on Colon cancer organoid [1]; 45.1% with Colon cancer organoid [2]; 77.7% in the experiment on Colon cancer organoid [3]; 69.9% in the experiment on Colon cancer organoid [4]; 101% in the experiment on Colon cancer organoid [5].
Take `CS(=O)(=O)NCC[C@H](NC(=O)c1cncc2c1cnn2-c1ccc(F)cc1)c1ccnc(S(C)(=O)=O)c1` [BI 9307]: the viability at 1 µM stood at 114% in the experiment on Colon cancer organoid [1]; 37.4% in the experiment on Colon cancer organoid [2]; 116% with Colon cancer organoid [3]; 70.6% in the experiment on Colon cancer organoid [4]; 105% in the experiment on Colon cancer organoid [5].
As for `C[C@@]1(Cc2ccc(C#N)cc2)C(=O)N(c2cc(Cl)cc(Cl)c2)c2ncc(C(=O)NC3(c4nc(C5CCC5)no4)CC3)n21` [BI 9446], the viability at 10 µM with Colon cancer organoid [1] was 80.2%; in the experiment on Colon cancer organoid [2] it was 23%; in the experiment with Colon cancer organoid [3], 43%; with Colon cancer organoid [4], 66.3%; in the experiment on Colon cancer organoid [5], 80.5%.
For `CC(=O)N1CCC(c2ccc(C(=O)NC(=N)N)cc2C(F)(F)F)CC1` [BI 9627] the same measures were 109%, 42.9%, 53.2%, 106% and 102%.
Take `CCC(=O)N[C@H]1CC[C@@H](C(=O)N(C)c2ccc(-c3nc4ccccc4o3)cc2)C1` [BI 99179]: the viability at 10 µM with Colon cancer organoid [1] amounted to 168%; in the experiment with Colon cancer organoid [2] it was 44.8%; in the experiment on Colon cancer organoid [3] it was 82%; in the experiment with Colon cancer organoid [4], 124%; in the experiment on Colon cancer organoid [5] it was 48.5%.
As for `CCC(=O)N[C@@H]1CC[C@H](C(=O)N(C)c2ccc(-c3nc4ccccc4o3)cc2)C1` [BI 99990], the viability at 10 µM was 154% in the experiment on Colon cancer organoid [1]; 37.6% in the experiment with Colon cancer organoid [2]; 69.7% in the experiment with Colon cancer organoid [3]; 100% in the experiment on Colon cancer organoid [4]; 150% in the experiment on Colon cancer organoid [5].
Turning to `CS(=O)(=O)c1cc(C2(NC(=O)c3cncc4c3cnn4-c3ccc(F)cc3)CC2)ccn1` [BI 639667], the viability at 1 µM in the experiment on Colon cancer organoid [1] was 135%; in the experiment on Colon cancer organoid [2], 39%; with Colon cancer organoid [3], 107%; in the experiment on Colon cancer organoid [4], 94.7%; with Colon cancer organoid [5], 126%.
Regarding `CCS(=O)(=O)c1cc2cc(C[C@](O)(CC(C)(C)c3ccc(F)cc3C(N)=O)C(F)(F)F)[nH]c2cn1` [BI 653048], the viability at 10 µM with Colon cancer organoid [1] came to 161%; in the experiment on Colon cancer organoid [2], 42.7%; in the experiment with Colon cancer organoid [3] it was 68.4%; with Colon cancer organoid [4] it was 110%; in the experiment on Colon cancer organoid [5] it was 100%.
For `CN(C)C(=O)Cn1cc(-c2nc([C@@](C)(c3ccc(-c4cnc(N)nc4)cc3)C3CC3)no2)cn1` [BI 665915], the viability at 1 µM with Colon cancer organoid [1] was 181%; in the experiment on Colon cancer organoid [2], 56.8%; in the experiment on Colon cancer organoid [3] it was 79.9%; in the experiment on Colon cancer organoid [4] it was 85.2%; in the experiment with Colon cancer organoid [5], 102%.
With `CC[C@H](CC(=O)O)n1c(=O)c2ncccc2n(Cc2cn(C)c3cc(C)cc(C)c23)c1=O` [BI-1942], the viability at 10 µM was 113% in the experiment with Colon cancer organoid [1]; 37.9% in the experiment on Colon cancer organoid [2]; 60.8% in the experiment with Colon cancer organoid [3]; 65% in the experiment on Colon cancer organoid [4]; 93.3% in the experiment on Colon cancer organoid [5].
With `CN(C)C(=O)c1sc2nc(N3CCC(S(C)(=O)=O)CC3)cc(C(F)(F)F)c2c1N` [BI-5026], the viability at 10 µM came to 83.8% in the experiment on Colon cancer organoid [1]; 51% in the experiment on Colon cancer organoid [2]; 50% in the experiment on Colon cancer organoid [3]; 79.7% in the experiment with Colon cancer organoid [4]; 108% with Colon cancer organoid [5].
With `CCC(F)(F)c1cc(N2CCC(S(C)(=O)=O)CC2)nc2sc(C(N)=O)c(N)c12` [BI-605906], the viability at 10 µM was 102% with Colon cancer organoid [1]; 50.7% with Colon cancer organoid [2]; 53.3% with Colon cancer organoid [3]; 62.6% in the experiment with Colon cancer organoid [4]; 125% with Colon cancer organoid [5].
As to `O=c1nc(-c2ccccn2)sc2ccccc12` [BTZO-1], the viability at 10 µM with Colon cancer organoid [1] was 186%; in the experiment with Colon cancer organoid [2], 69.4%; with Colon cancer organoid [3], 83.1%; in the experiment on Colon cancer organoid [4], 120%; in the experiment on Colon cancer organoid [5], 117%.
On to `O=C1NC(c2ccccn2)Sc2ccccc21` (stereo not given) [BTZO-4], for which the viability at 10 µM in the experiment with Colon cancer organoid [1] was determined as 142%; with Colon cancer organoid [2], 48.9%; in the experiment with Colon cancer organoid [3], 56.6%; in the experiment on Colon cancer organoid [4], 100%; with Colon cancer organoid [5], 112%.
Take `C=CC(=O)Nc1ccc2[nH]c(=O)n(C3CCN(Cc4ccc(-c5nc6cc[nH]c(=O)c6cc5-c5ccccc5)cc4)CC3)c2c1` [Borussertib]: the viability at 10 µM in the experiment on Colon cancer organoid [1] came to 9.17%; with Colon cancer organoid [2], 14.3%; in the experiment with Colon cancer organoid [3] it was 7.88%; in the experiment with Colon cancer organoid [4], 10.6%; in the experiment with Colon cancer organoid [5], 28.5%.
With `CN([C@@H]1CCc2c(CC(=O)O)c3cc(S(C)(=O)=O)ccc3n2C1)S(=O)(=O)c1ccc(F)cc1` [CRTH2-negative-control], the viability at 10 µM was determined as 76.2% with Colon cancer organoid [1]; 37% in the experiment with Colon cancer organoid [2]; 24.9% in the experiment with Colon cancer organoid [3]; 54.8% in the experiment with Colon cancer organoid [4]; 98.2% with Colon cancer organoid [5].
As for `CNC(=O)c1ccc(Nc2ncc(C(F)(F)F)c(NCc3nccnc3N(C)S(C)(=O)=O)n2)cc1` [DEFACTINIB], the viability at 10 µM worked out at 78.6% in the experiment with Colon cancer organoid [1]; 17.9% in the experiment on Colon cancer organoid [2]; 40.5% in the experiment on Colon cancer organoid [3]; 39.9% with Colon cancer organoid [4]; 76.8% in the experiment on Colon cancer organoid [5].
For `CCN(CCO)CCCOc1ccc2c(Nc3cc(CC(=O)Nc4cccc(F)c4)[nH]n3)ncnc2c1` [DEFOSBARASERTIB] the same measures were 62.1%, 3.88%, 19.2%, 28.3% and 9.69%.
For `Cn1c(C2(NC(=O)c3ccc4c(C5CCCC5)c(-c5ncc(Br)cn5)n(C)c4c3)CCC2)nc2ccc(/C=C/C(=O)O)cc21` [DELEOBUVIR], the viability at 10 µM in the experiment with Colon cancer organoid [1] came to 112%; in the experiment with Colon cancer organoid [2] it was 50.5%; with Colon cancer organoid [3] it was 94.6%; in the experiment on Colon cancer organoid [4] it was 60.4%; in the experiment on Colon cancer organoid [5], 126%.
Turning to `C[C@H](NC(=O)Nc1cc2[nH]ncc2c(CO)n1)c1ccccn1` [ERKi-NC], the viability at 10 µM with Colon cancer organoid [1] turned out to be 94.9%; with Colon cancer organoid [2] it was 21.8%; in the experiment on Colon cancer organoid [3], 40.9%; in the experiment with Colon cancer organoid [4] it was 62.2%; with Colon cancer organoid [5], 71.3%.
Consider `C[C@@H](NC(=O)Nc1cc2[nH]ncc2c(CO)n1)c1ccccc1` [ERKi], for which the viability at 10 µM in the experiment with Colon cancer organoid [1] was 14.3%; in the experiment with Colon cancer organoid [2], 10.3%; with Colon cancer organoid [3], 4.5%; with Colon cancer organoid [4], 14.3%; in the experiment with Colon cancer organoid [5], 49.2%.
Consider `CN(C(=O)c1ccccc1)c1cc(N(C)c2ccc3c(c2)CCc2ccc(C(=O)NCCN4CCOCC4)cc2C3=O)ccc1F` [FM-743], for which the viability at 10 µM in the experiment with Colon cancer organoid [1] was found to be 141%; with Colon cancer organoid [2] it was 36.5%; in the experiment with Colon cancer organoid [3] it was 83.7%; in the experiment with Colon cancer organoid [4] it was 59.3%; in the experiment on Colon cancer organoid [5] it was 142%.
For `O=C(NCCN1CCOCC1)c1ccc2c(c1)C(=O)c1ccc(Nc3ccc(F)c(NC(=O)c4ccccc4)c3)cc1CC2` [FS-694] the same measures were 108%, 28.9%, 40%, 54% and 156%.
As to `CC(C)(C)OC(=O)N1CCCC1CNC1CCC(c2cc(F)ccc2F)(S(=O)(=O)c2ccc(Cl)cc2)CC1` (stereo not given) [GSI-NC], the viability at 10 µM with Colon cancer organoid [1] worked out at 109%; with Colon cancer organoid [2], 52.1%; with Colon cancer organoid [3], 42.1%; with Colon cancer organoid [4], 78.6%; with Colon cancer organoid [5], 74.5%.
In the case of `CC(=O)Nc1c(F)cc(C(=O)N[C@H]2CC[C@H](O)CC2)cc1O[C@@H](C)c1ccccc1` [GSK046], the viability at 10 µM is 100% in the experiment with Colon cancer organoid [1]; 25.9% in the experiment with Colon cancer organoid [2]; 55.8% in the experiment on Colon cancer organoid [3]; 48.8% with Colon cancer organoid [4]; 121% in the experiment on Colon cancer organoid [5].
As to `CNC(=O)c1cc(C(=O)NC2CC2)cn(Cc2ccccc2)c1=O` [GSK620], the viability at 10 µM with Colon cancer organoid [1] amounted to 111%; with Colon cancer organoid [2], 24.6%; in the experiment on Colon cancer organoid [3], 60.9%; with Colon cancer organoid [4] it was 66.8%; in the experiment with Colon cancer organoid [5], 116%.
For `COCc1nc2cnc3cc(-c4c(C)noc4C)c(OC[C@H]4CCNC4)cc3c2n1[C@H](C)c1ccccc1` [GSK778], in that order: 95.6%, 8.04%, 47.2%, 48.8% and 40%.
`Cc1cc2c(-c3ccco3)cnc(N[C@@H]3CCN(C)C[C@H]3C(=O)NC3CCCCC3)c2[nH]c1=O` [GSK789]: the viability at 10 µM with Colon cancer organoid [1] was 72.5%; with Colon cancer organoid [2] it was 26.6%; with Colon cancer organoid [3] it was 29.8%; in the experiment with Colon cancer organoid [4] it was 38.8%; in the experiment on Colon cancer organoid [5], 84.8%.

For orientation: viability means a read-out of living cells in per cent, often relative to untreated cells.

For the origin of these results see ChEMBL document CHEMBL5608113, “Targeting of CAF-induced therapy resistance in CRC organoid-stroma co-cultures” (2024).
